Reference: ChEMBL document CHEMBL1149382 (J Med Chem, 2006)
pIC50: −log10 of the molar value. Converted amounts (≈) assume the structure as drawn. The source made the active and inactive calls. No cut-off for these calls is given here.

Assays:
Trypanosoma cruzi [1] = assay: Ability to block ergosterol biosynthesis in Trypanosoma cruzi; assay type: functional, organism-based
[2] = target: T1, Farnesyl diphosphate synthase (Trypanosoma cruzi) (UniProt Q8WS26); assay: Inhibitory activity against recombinant farnesyl diphosphate synthase at 50 uM
T1 sequence (whole entry): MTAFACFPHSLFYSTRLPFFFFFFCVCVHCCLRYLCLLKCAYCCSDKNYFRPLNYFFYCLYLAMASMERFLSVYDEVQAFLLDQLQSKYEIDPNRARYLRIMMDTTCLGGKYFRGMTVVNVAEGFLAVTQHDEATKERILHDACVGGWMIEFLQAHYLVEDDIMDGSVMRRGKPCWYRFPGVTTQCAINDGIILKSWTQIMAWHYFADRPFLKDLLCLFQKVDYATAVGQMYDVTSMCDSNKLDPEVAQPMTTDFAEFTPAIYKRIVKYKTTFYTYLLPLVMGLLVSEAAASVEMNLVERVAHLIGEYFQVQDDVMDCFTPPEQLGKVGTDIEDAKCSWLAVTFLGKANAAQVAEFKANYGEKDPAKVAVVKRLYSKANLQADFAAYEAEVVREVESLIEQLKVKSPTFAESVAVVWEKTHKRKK

[3] = target: lanosterol synthase / oxidosqualene cyclase (Homo sapiens) (UniProt P48449); assay: Inhibitory activity against oxidosqualene cyclase
Chain of lanosterol synthase / oxidosqualene cyclase (Homo sapiens) (P48449 whole entry, looked up): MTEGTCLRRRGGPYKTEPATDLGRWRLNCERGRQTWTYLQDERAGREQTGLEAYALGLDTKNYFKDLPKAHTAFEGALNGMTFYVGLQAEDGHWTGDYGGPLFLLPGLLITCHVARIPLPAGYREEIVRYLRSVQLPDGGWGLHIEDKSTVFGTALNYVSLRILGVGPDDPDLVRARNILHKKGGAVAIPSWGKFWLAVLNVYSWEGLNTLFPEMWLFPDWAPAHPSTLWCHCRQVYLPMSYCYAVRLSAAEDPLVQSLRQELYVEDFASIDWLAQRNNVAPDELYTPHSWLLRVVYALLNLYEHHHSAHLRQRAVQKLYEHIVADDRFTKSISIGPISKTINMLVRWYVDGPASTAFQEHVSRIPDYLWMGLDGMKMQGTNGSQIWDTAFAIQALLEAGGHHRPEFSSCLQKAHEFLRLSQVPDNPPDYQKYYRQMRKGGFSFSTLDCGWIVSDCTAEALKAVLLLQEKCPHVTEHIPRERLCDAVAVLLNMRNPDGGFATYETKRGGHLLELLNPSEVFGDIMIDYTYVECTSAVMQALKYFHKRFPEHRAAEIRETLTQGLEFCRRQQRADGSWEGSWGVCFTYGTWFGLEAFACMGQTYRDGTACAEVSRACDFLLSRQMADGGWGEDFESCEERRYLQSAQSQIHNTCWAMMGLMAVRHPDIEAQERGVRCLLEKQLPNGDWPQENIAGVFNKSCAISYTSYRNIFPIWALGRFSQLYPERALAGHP

Trypanosoma cruzi [4] = assay: Antiprotozoal activity against Trypanosoma cruzi epimastigotes; assay type: functional, organism-based
Trypanosoma cruzi [5] = assay: Disruption of calcium homeostasis in Trypanosoma cruzi; assay type: functional, organism-based
Trypanosoma cruzi [6] = assay: Antiprotozoal activity against Trypanosoma cruzi amastigotes; assay type: functional, organism-based

| SMILES | Activity (Trypanosoma cruzi [1]) | inhibition [2] | IC50 [3] | MIC (Trypanosoma cruzi [4]) | Activity (Trypanosoma cruzi [5]) | MIC (Trypanosoma cruzi [6]) | pIC50 (Trypanosoma cruzi [4]) | pIC50 (Trypanosoma cruzi [6]) |
| --- | --- | --- | --- | --- | --- | --- | --- | --- |
| CCCCc1oc2ccccc2c1C(=O)c1cc(I)c(OCCN(CC)CC)c(I)c1 [AMIODARONE] | Active | inactive | Active | 20 µM (≈ 12.9 µg/mL) | Active | 8 µM (≈ 5.16 µg/mL) | – | – |
| CC[C@@H]([C@H](C)O)n1ncn(-c2ccc(N3CCN(c4ccc(OC[C@@H]5CO[C@@](Cn6cncn6)(c6ccc(F)cc6F)C5)cc4)CC3)cc2)c1=O [POSACONAZOLE] | – | – | – | 0.02 µM (≈ 0.014 µg/mL) | Active | 0.003 µM (≈ 0.0021 µg/mL) | 7.85 | 9.60 |
